≈ marks a conversion by molar mass, not a printed value.
Tests used:
[1] = target: T1, Mineralocorticoid receptor (Homo sapiens, UniProt P08235)
T1 sequence (P08235 whole entry): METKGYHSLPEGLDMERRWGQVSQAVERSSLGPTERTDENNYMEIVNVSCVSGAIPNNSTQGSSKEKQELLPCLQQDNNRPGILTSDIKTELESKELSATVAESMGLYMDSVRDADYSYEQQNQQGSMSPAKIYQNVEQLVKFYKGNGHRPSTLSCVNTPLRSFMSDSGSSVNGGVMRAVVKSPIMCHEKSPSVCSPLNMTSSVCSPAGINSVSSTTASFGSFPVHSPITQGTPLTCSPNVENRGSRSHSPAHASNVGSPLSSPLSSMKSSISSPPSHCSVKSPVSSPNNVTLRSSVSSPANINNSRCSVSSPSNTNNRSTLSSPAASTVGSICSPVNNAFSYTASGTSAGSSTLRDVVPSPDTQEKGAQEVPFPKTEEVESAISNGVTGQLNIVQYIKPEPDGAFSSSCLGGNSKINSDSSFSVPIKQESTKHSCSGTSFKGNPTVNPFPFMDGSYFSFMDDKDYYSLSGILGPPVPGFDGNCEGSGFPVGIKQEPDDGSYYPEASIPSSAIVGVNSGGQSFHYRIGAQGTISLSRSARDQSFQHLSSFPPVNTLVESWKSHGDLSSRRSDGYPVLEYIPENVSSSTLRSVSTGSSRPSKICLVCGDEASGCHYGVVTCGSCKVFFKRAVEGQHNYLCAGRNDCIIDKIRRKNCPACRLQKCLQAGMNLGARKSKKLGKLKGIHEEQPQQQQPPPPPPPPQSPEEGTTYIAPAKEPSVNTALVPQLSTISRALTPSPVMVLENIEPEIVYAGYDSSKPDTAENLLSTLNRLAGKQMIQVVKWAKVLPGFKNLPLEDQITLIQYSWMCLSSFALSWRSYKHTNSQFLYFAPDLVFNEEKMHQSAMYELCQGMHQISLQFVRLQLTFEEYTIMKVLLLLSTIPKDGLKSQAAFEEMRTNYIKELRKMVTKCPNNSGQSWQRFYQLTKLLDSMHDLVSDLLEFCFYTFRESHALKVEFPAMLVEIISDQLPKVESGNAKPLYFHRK
Description: Antagonist activity at mineralocorticoid receptor LBD expressed in human HUH7 cells coexpressing GAL4 by luciferase reporter gene assay

Liver microsomes [2] = assay: Metabolic stability in rat liver microsomes assessed as compound remaining; assay type: ADME, Microsome; note: time not given here
Glucocorticoid receptor = target: T2, Glucocorticoid receptor (Homo sapiens, UniProt P04150); assay: Antagonist activity at glucocorticoid receptor LBD expressed in human HUH7 cells coexpressing GAL4 by luciferase reporter gene assay; assay type: functional, cell-based, Huh-7
T2 sequence (P04150 whole entry): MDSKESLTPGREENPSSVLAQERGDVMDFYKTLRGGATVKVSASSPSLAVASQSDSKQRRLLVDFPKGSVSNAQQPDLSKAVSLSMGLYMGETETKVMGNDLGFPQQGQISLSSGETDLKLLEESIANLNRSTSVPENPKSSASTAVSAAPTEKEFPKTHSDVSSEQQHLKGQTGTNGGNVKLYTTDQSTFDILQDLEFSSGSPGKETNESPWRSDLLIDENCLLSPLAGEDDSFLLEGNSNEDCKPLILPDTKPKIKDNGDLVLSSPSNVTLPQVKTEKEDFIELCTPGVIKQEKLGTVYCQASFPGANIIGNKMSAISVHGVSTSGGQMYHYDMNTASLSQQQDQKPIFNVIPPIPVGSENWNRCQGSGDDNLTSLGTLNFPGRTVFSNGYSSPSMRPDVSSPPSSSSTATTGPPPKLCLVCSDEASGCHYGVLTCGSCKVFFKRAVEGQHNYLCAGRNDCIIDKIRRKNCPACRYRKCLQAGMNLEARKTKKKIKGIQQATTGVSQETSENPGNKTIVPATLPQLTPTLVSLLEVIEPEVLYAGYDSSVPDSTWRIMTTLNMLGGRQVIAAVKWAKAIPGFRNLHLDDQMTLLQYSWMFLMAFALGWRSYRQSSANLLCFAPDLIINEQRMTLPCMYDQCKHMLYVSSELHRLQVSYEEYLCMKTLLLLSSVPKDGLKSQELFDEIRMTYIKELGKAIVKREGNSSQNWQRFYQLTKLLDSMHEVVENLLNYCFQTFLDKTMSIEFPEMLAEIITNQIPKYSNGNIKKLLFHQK

Progesterone receptor = target: T3, Progesterone receptor (Homo sapiens, UniProt P06401); assay: Antagonist activity at progesterone receptor LBD expressed in human HUH7 cells coexpressing GAL4 by luciferase reporter gene assay; assay type: functional, cell-based, Huh-7
T3 sequence (P06401 whole entry): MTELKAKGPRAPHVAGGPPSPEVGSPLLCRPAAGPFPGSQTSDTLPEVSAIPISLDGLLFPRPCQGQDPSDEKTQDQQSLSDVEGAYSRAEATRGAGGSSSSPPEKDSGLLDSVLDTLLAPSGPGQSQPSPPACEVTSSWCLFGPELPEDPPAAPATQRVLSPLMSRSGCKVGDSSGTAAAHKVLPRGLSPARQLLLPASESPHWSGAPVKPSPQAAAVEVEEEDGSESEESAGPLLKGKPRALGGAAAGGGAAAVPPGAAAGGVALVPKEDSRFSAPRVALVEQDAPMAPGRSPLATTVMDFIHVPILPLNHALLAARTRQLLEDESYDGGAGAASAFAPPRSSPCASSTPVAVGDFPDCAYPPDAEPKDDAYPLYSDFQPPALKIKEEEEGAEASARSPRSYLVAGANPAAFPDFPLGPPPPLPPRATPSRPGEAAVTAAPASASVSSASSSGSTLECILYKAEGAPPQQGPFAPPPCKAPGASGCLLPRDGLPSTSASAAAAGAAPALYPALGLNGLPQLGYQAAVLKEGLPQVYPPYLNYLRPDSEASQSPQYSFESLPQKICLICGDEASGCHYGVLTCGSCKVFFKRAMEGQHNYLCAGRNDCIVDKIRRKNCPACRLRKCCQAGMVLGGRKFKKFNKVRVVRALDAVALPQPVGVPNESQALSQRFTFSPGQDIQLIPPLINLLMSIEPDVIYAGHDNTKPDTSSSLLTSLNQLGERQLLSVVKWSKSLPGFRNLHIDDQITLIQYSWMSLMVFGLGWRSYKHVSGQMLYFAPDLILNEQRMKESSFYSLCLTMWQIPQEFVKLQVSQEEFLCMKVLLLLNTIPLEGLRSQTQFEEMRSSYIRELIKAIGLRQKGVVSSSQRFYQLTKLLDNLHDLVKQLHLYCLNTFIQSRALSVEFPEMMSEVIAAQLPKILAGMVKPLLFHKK

Androgen receptor = target: T4, Androgen receptor (Homo sapiens, UniProt P10275); assay: Antagonist activity at androgen receptor LBD expressed in human HUH7 cells coexpressing GAL4 by luciferase reporter gene assay; assay type: functional, cell-based, Huh-7
T4 sequence (P10275 whole entry): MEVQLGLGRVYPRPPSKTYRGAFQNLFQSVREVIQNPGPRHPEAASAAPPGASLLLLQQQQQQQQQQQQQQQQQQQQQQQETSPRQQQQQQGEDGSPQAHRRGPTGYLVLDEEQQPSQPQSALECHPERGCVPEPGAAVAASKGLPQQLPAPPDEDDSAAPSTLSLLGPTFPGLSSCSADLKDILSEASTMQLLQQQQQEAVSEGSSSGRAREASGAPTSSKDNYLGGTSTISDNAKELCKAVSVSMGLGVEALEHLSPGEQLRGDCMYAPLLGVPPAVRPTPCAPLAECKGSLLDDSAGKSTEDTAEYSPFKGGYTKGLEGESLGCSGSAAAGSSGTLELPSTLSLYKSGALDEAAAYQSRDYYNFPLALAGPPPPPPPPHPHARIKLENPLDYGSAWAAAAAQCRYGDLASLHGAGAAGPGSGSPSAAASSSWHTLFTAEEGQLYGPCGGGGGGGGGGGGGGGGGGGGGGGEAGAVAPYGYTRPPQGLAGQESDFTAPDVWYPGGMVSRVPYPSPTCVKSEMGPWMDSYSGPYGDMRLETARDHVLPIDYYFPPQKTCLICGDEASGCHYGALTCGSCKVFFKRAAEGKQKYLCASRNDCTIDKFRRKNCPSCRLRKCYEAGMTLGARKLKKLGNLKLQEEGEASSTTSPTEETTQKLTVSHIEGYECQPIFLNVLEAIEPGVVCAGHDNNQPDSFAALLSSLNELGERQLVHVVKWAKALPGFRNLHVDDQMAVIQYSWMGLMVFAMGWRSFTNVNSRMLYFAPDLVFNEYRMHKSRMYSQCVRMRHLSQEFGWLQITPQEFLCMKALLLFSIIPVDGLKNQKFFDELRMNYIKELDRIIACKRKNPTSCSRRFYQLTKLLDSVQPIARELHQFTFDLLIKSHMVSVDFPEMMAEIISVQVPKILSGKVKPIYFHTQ

[3] = Solubility of the compound; assay type: physicochemical
Liver microsomes [4] = assay: Metabolic stability in human liver microsomes assessed as compound remaining; assay type: ADME, Microsome; note: time not given here
Cytochrome P450 2C9 = Cytochrome P450 2C9 (Homo sapiens, UniProt P11712); assay: Inhibition of CYP2C9; assay type: ADME
Cytochrome P450 2D6 = Cytochrome P450 2D6 (Homo sapiens, UniProt P10635); assay: Inhibition of CYP2D6; assay type: ADME
Cytochrome P450 3A4 = Cytochrome P450 3A4 (Homo sapiens, UniProt P08684); assay: Inhibition of CYP3A4; assay type: ADME
Cytochrome P450 3A4, sequence (P08684 whole entry): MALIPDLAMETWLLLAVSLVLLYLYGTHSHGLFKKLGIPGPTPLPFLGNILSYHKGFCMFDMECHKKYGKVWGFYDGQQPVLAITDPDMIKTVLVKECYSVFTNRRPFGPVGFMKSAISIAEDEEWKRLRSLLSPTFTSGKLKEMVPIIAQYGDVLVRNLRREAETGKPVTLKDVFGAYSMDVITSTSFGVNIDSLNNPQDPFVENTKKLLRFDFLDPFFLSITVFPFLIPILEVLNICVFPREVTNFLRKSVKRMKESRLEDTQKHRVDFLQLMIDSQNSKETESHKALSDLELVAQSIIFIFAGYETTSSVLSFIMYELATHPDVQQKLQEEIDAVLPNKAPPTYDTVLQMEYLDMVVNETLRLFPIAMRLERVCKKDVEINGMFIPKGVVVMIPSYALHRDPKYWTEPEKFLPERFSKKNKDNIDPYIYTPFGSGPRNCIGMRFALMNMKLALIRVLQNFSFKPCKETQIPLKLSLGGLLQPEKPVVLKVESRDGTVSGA

Cytochrome P450 2C9, sequence (P11712 whole entry): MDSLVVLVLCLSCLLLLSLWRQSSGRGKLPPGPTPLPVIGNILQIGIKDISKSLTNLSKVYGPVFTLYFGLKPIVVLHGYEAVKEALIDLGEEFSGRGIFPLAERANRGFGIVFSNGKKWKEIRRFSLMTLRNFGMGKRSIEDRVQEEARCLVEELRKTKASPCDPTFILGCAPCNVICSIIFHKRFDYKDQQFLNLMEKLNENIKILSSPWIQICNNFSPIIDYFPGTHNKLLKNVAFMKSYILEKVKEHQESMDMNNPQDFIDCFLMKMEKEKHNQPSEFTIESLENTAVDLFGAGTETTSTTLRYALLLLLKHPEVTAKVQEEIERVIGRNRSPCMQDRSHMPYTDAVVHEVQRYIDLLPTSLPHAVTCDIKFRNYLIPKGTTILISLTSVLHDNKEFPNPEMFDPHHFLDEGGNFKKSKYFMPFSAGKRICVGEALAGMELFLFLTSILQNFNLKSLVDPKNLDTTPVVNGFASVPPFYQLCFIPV
Cytochrome P450 2D6, sequence (P10635 whole entry): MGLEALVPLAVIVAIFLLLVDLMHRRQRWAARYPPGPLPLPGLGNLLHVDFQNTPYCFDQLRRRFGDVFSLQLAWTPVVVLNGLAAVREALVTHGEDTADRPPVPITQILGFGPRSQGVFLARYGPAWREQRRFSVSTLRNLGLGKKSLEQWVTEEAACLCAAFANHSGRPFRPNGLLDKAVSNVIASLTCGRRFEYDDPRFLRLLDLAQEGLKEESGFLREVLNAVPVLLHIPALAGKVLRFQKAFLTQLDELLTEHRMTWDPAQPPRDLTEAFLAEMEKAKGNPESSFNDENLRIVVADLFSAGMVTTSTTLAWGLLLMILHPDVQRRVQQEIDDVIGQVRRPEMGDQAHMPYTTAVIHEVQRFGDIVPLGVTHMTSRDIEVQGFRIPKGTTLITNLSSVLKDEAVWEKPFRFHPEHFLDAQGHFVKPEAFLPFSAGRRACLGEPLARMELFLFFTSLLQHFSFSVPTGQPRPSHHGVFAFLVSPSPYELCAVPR

Compound	IC50 [1] [nM]	other results
COC(=O)C1=C(C)NC(C)=C(C(=O)OC(C)(C)C)C1c1cccc(Cl)c1 (configuration not stated)	518	
CCOC(=O)C1=C(c2ccc(Cl)cc2)NC(C)=C(C#N)C1c1ccccc1Cl (configuration not stated)	1090	
COC(=O)C1=C(C)NC(C)=C(C(=O)OC(C)(C)C)C1c1ccc(Cl)cc1 (configuration not stated)	319	
COC(=O)C1=C(C)NC(C)=C(C(=O)OC(C)(C)C)C1c1cccc(C)c1 (configuration not stated)	2790	
COC(=O)C1=C(C)NC(C)=C(C(=O)OC(C)(C)C)C1c1cccc(C(F)(F)F)c1 (configuration not stated)	702	
COC(=O)C1=C(C)NC(C)=C(C(=O)OC(C)(C)C)C1c1cccc(O)c1 (configuration not stated)	2830	
CCCC1=C(C(=O)OC)C(c2ccc(F)cc2Cl)C(C#N)=C(C)N1 (configuration not stated)	16	Stability (Liver microsomes [2]): 4%; IC50 (Glucocorticoid receptor): 700 nM; IC50 (Progesterone receptor): > 10000 nM; IC50 (Androgen receptor): 100 nM; solubility [3]: 5 µM (≈ 1.74 µg/mL); Stability (Liver microsomes [4]): 4%
COC(=O)C1=C(C)NC(C)=C(C#N)C1c1ccccc1Cl (configuration not stated)	594	
COC(=O)C1=C(C)NC(C)=C(C(=O)OC(C)(C)C)C1c1ccc(C)cc1 (configuration not stated)	12000	
COC(=O)C1=C(C(F)(F)F)N(C)C(C)=C(C#N)C1c1ccc(F)cc1Cl (configuration not stated)	275	
COC(=O)C1=C(C)NC(C)=C(C(=O)OC(C)(C)C)C1c1ccccc1C(F)(F)F (configuration not stated)	224	
COC(=O)C1=C(C)NC(C)=C(C(=O)OC(C)(C)C)C1c1ccc(Cl)c(F)c1 (configuration not stated)	574	
CC1=C(C#N)C(c2ccc(F)cc2)C(C(=O)OC(C)(C)C)=C(C)N1 (configuration not stated)	329	
COC(=O)C1=C(C)NC(C)=C(C(=O)OC(C)(C)C)C1c1ccc(C(F)(F)F)cc1 (configuration not stated)	309	
COCCN1C(C)=C(C#N)C(c2ccc(F)cc2F)C(C(=O)OC(C)(C)C)=C1C (configuration not stated)	3740	
CCOC(=O)C1=C(c2ccccc2)NC(C)=C(C#N)C1c1ccccc1Cl (configuration not stated)	923	
COC(=O)C1=C(C)NC(C)=C(C(=O)OC(C)(C)C)C1c1ccccc1F (configuration not stated)	2020	
COC(=O)C1=C(C)NC(C)=C(C(=O)OC(C)(C)C)C1c1ccccc1C (configuration not stated)	208	
COC(=O)C1=C(C)NC(C)=C(C(=O)OC(C)(C)C)C1c1cccc(F)c1 (configuration not stated)	1390	

Compound	IC50 [1] [nM]	other results
COC(=O)C1=C(C)NC(C)=C(C(=O)OC(C)(C)C)C1c1ccc(F)cc1 (configuration not stated)	288	
COC(=O)C1=C(Cc2ccccc2)NC(C)=C(C#N)C1c1ccccc1Cl (configuration not stated)	852	
COC(=O)C1=C(C)NC(C)=C(C(=O)OC(C)(C)C)C1c1ccccc1Cl (configuration not stated)	621	
CCCCC1=C(C(=O)OC)C(c2ccccc2Cl)C(C#N)=C(C)N1 (configuration not stated)	58	Stability (Liver microsomes [2]): 3%; IC50 (Glucocorticoid receptor): 1600 nM; IC50 (Progesterone receptor): 300 nM; IC50 (Androgen receptor): 900 nM; solubility [3]: < 5 µM; Stability (Liver microsomes [4]): 11%
COC(=O)C1=C(C)NC(C)=C(C(=O)OC(C)(C)C)C1c1cccc(C#N)c1 (configuration not stated)	3200	
COC(=O)C1=C(C)NC(C)=C(C(=O)OC(C)(C)C)C1c1ccc(F)cc1Cl (configuration not stated)	78	
CC1=C(C#N)C(C)(c2ccc(F)cc2)C(C(=O)OC(C)(C)C)=C(C)N1 (configuration not stated)	661	
COC(=O)C1=C(C(C)C)NC(C)=C(C#N)C1c1ccccc1Cl (configuration not stated)	208	
CCCC1=C(C(=O)OC)C(c2ccccc2)C(C#N)=C(C)N1 (configuration not stated)	7430	
COC(=O)C1=C(C)NC(C)=C(C(=O)OC(C)(C)C)C1c1ccc(OC)cc1 (configuration not stated)	2620	
CCN1C(C)=C(C#N)C(c2ccc(F)cc2F)C(C(=O)OC(C)(C)C)=C1C (configuration not stated)	1620	
COC(=O)C1=C(C)NC(C)=C(C(=O)OC(C)(C)C)C1c1cccc(OC)c1 (configuration not stated)	888	
COC(=O)C1=C(C)NC(C)=C(C(=O)OC(C)(C)C)C1c1ccccc1OC (configuration not stated)	553	
CC1=C(C#N)C(c2ccc(F)cc2F)C(C(=O)OC(C)(C)C)=C(C)N1 (configuration not stated)	201	
CCC1=C(C(=O)OC)C(c2ccccc2Cl)C(C#N)=C(C)N1 (configuration not stated)	232	
COC(=O)C1=C(C(F)(F)F)NC(C)=C(C#N)C1c1ccc(F)cc1Cl (configuration not stated)	52	Stability (Liver microsomes [2]): 6%; inhibition (INH) (Cytochrome P450 2C9): 72%; IC50 (Glucocorticoid receptor): 3700 nM; inhibition (INH) (Cytochrome P450 2D6): 6.8%; IC50 (Progesterone receptor): 7800 nM; inhibition (INH) (Cytochrome P450 3A4): 30%; IC50 (Androgen receptor): 800 nM; Stability (Liver microsomes [4]): 0%
COC(=O)C1=C(C)NC(C)=C(C(=O)OC(C)(C)C)C1c1ccc(O)cc1 (configuration not stated)	2570	
COCC1=C(C(=O)OC)C(c2ccccc2Cl)C(C#N)=C(C)N1 (configuration not stated)	655	
